Laboratory results reported in publication PMC8264131 (Frontiers in Pharmacology, 2021).
Where two headings read alike, the source gives them in different places.

Key:
[1] = bovine blood in vitro hemodialysis model: hemofilter clearance; type: in vitro ADME; conditions: for Cl, in vitro clearance rate: ultrafiltration 0 ml/min, 37°C, corrected by hematocrit
Description: Hemodialysis was simulated using a Fresenius 4008H dialysis machine. After priming of the extracorporeal circuit including the dialysis membrane with 0.9% saline solution, a reservoir bag containing 2 L of 37°C warm heparinized bovine blood (provided in cooperation with the University of Veterinary Medicine Vienna after seeking authorization by the institutional and governmental ethics committee, (ZI.04/04/972,013, GZ: 68.205/0240-WF/V/3b/2016) was connected to the circuit. The blood was kept at 37°C throughout the experiment. It was mixed with 2,000 IU of low molecular weight heparin directly during the blood draw as well as during the experiment itself with a rate of 500 IU per hour. After circuit connection, the investigated drug was added to the reservoir in order to mimic plasma levels previously described in trials ([Lanese et al., 1989]; [Thalhammer et al., 1997]; [Amin et al., 1999]). […] After priming the system with blood, it was allowed to run for 30 s to allow equilibration of blood hematocrit throughout the extracorporeal circuit before the baseline sample was drawn. Due to the reduced volume compared to in vivo and the comparably large hemofilter membrane area, a considerably faster drug concentration decline was expected. Thus, pre filter, post filter and ultrafiltrate samples were collected at the end of minutes 1, 5, 10, 15, 20, 30, 40 and 60 of the run. All samples were plasma separated by centrifugation at 2000 ×vg for 7 min and the supernatant stored at −80°C for analysis.
An actual blood flow rate of 300 ml/min and a dialysate flow rate of 500 ml/min were kept as standard flow rates. Depending on previous literature, single drugs were run at different flow rates to allow external validation of the model. Ultrafiltration (corresponding to negative fluid balance/water removal during hemodialysis) was kept at 0 ml/min. […] Hemodialysation and hemofiltration experiments were performed with Baxter Gambro CAHP 170 diacetate devices, Nipro Sureflux 17UX and 21UX triacetate membranes as well as Fresenius Hemoflow F80s and FX 80 polysulphone membranes.
The measured drug plasma concentrations were analyzed to calculate the area under the curve, hemofilter clearance and the drug saturation coefficient. As removal within the hemofilter is expected to be too fast for equilibration of drugs out of the erythrocyte compartment and drug concentrations were measured in the plasma, all clearance values were calculated with a hematocrit corrected formula, in which Hc is the blood hematocrit in percent divided by 100, BFR the actual blood flow rate, Cpre the drug concentration measured before the blood enters the filter and Cpost the drug concentration measured after the filter. Additionally the formula allows for correction of blood concentration by ultrafiltration (UFR). (1−Hc)×BFR×Cpre−(Cpost(BFR−UFR))/BFR/[…]
Hematocrit corrected and not corrected clearance, total “body” clearance, volume of distribution, area under curve, elimination coefficient and half-life were evaluated for their correspondence to previously published in vivo values. Whenever previous publications declared the method of clearance calculation, the same formula was used. […] An empirical fitting of the in vitro PK curves and available in vivo PK curves was performed to gain an insight into the time relation between in vitro and in vivo.
More recent historic data on intradialytic gentamicin clearance only exists for the Baxter CAHP-210 membrane ([Sowinski et al., 2008]) and the Fresenius F80s ([Amin et al., 1999]) which are both not available anymore. Baxter however was kind enough to supply us with several CAHP-170 and […] models. To extrapolate assumed clearance of a CAHP-210, we compared clearance gains between a Nipro Sureflux 17UX and a Sureflux 21UX membrane.

[2] = plasma protein binding in bovine plasma (ultrafiltration); conditions: bovine plasma from two cows, 2000 x g
[3] = cited from earlier work
Text: TABLE 2 Comparison of in vitro and in vivo clearance values.

[4] = cited from earlier work; remark: listed apart in the source
[5] = earlier publications, slightly higher bound fraction, (±3.0); ref PMC, 1972; cited from earlier work
[6] = membrane Fx80 (Fresenius high flux polysulphone, 1.8 m^2), BFR 300 ml/min, DFR 500 ml/min, bovine blood, mean, N = 12

Compound: C[C@@H](O)[C@H]1C(=O)N2C(C(=O)O)=C(S[C@@H]3CN[C@H](CNS(N)(=O)=O)C3)[C@H](C)[C@H]12 [Doripenem, doripenem]
- Cl, in vitro clearance rate [1, 6]: 141.25 mL/min
- Cl, in vitro clearance rate ([1]; membrane SF21UX (Nipro cellulose triacetate, 2.1 m^2), BFR 300 ml/min, DFR 500 ml/min, bovine blood, mean, N = 12): 155.76 mL/min
- plasma protein binding, Bovine ([2]; Centrisart I devices, 20 min, room temperature, HPLC): 9.7%
- Clin vivo, clearance as described in referenced publication ([3]; human, in vivo): 148.61 mL/min
- plasma protein binding, Human [4]: 8.0%

Compound: CNC(C)C1CCC(N)C(OC2C(N)CC(N)C(OC3OCC(C)(O)C(NC)C3O)C2O)O1 (centres unmarked) [Gentamicin, gentamicin]
- Cl, in vitro clearance rate ([1]; membrane CAHP-170 (Baxter cellulose diacetate, 1.7 m^2), BFR 400 ml/min, DFR 800 ml/min, bovine blood, mean, N = 16): 90.12 mL/min
- Cl, in vitro clearance rate ([1]; membrane F80s (Fresenius high flux polysulphone, 1.8 m^2), BFR 300 ml/min, DFR 500 ml/min, bovine blood, mean, N = 12): 122.37 mL/min
- Cl, in vitro clearance rate ([1]; membrane F80s (Fresenius high flux polysulphone, 1.8 m^2), BFR 400 ml/min, DFR 800 ml/min, bovine blood, mean, N = 12): 137.62 mL/min
- Cl, in vitro clearance rate [1, 6]: 142.13 mL/min
- Cl, in vitro clearance rate ([1]; membrane Fx80 (Fresenius high flux polysulphone, 1.8 m^2), BFR 400 ml/min, DFR 800 ml/min, bovine blood, mean, N = 12): 187.90 mL/min
- Cl, in vitro clearance rate ([1]; membrane SF17UX (Nipro cellulose triacetate, 1.7 m^2), BFR 400 ml/min, DFR 800 ml/min, bovine blood, mean, N = 12): 160.75 mL/min
- Cl, in vitro clearance rate ([1]; membrane SF21E (Nipro Sureflux-21E medium-flux cellulose triacetate, 2.1 m^2), BFR 400 ml/min, DFR 800 ml/min, 2 L heparinized bovine blood, mean, N = 12): 131.52 mL/min
- Cl, in vitro clearance rate ([1]; membrane SF21UX (Nipro cellulose triacetate, 2.1 m^2), BFR 400 ml/min, DFR 800 ml/min, bovine blood, mean, N = 17): 178.25 mL/min

Compound: CN[C@H](CC(C)C)C(=O)N[C@H]1C(=O)N[C@@H](CC(N)=O)C(=O)N[C@H]2C(=O)N[C@H]3C(=O)N[C@H](C(=O)N[C@H](C(=O)O)c4cc(O)cc(O)c4-c4cc3ccc4O)[C@H](O)c3ccc(c(Cl)c3)Oc3cc2cc(c3O[C@@H]2O[C@H](CO)[C@@H](O)[C@H](O)[C@H]2O[C@H]2C[C@](C)(N)[C@H](O)[C@H](C)O2)Oc2ccc(cc2Cl)[C@H]1O [Vancomycin, vancomycin]
- plasma protein binding, Bovine ([2]; Millipore Centrefree device, 1 ml aliquot, 10 min, Cobas VANC3 assay): 43.6%
- bound fraction [5]: 54.8%
- Clin vivo, clearance as described in referenced publication ([3]; hemodialysis patients, membrane F60s, ref Lanese et al. (1989)): 73.0 mL/min
- Clin vivo, clearance as described in referenced publication ([3]; hemodialysis patients, membrane F80s, ref Lanese et al. (1989)): 85.2 mL/min
- plasma protein binding, Human ([4]; previously published value, ref Butterfield et al. (2011)): 41.5%

Compound: teicoplanin
- Cl, in vitro clearance rate ([1]; membrane F60s (Fresenius polysulphone), BFR 250 ml/min, DFR 500 ml/min, bovine blood, mean, N = 16): 25.50 mL/min
- Clin vitro, non hematocrit corrected clearance ([1]; membrane F60s, bovine blood in vitro hemodialysis, non hematocrit corrected, mean): 38.95 mL/min
- Cl, in vitro clearance rate ([1]; membrane Fx80 (Fresenius polysulphone), BFR 250 ml/min, DFR 500 ml/min, bovine blood, mean, N = 12): 43.49 mL/min
- clearance, simulation with Sureflux SF 21E triacetate dialyzer ([1]; membrane Sureflux SF 21E triacetate, bovine blood in vitro hemodialysis, flow rates not given): 17.6 mL/min
- Clin vivo, non-hematocrit corrected clearance ([3]; human, in vivo): 39.70 mL/min
